Data published in patent US20090137811A1 (published 2009).
“And” between values parts separate entries of the source, which are not always exact repeats. Identical values can stand only once.

In the case of `COc1cc2c(cc1OC)C(=O)C(C(=O)c1ccncc1)C2` (stereo not shown), the melting point was 204 to 207 °C and 203 to 206 °C.
